{
  "source": "patent US10357477B2",
  "about": "“Anticancer compounds” (REGENTS OF THE UNIVERSITY OF MINNESOTA, priority 2016, dated 2019)",
  "key": {"[1]": {"system": "MCF10A cells (normal human mammary cells)", "experiment": "Cell viability assay (MTT) in MCF10A cells", "assay_type": "cell-based", "settings": "MCF-10A, 72 h", "description": "MCF10A cells are maintained in minimum essential medium (MEM) (Invitrogen 11095) supplemented with 10% FBS (Invitrogen 16000), 1% 10× non-essential amino acids (NEAA) (Invitrogen 11140), 1% Penicillin/Streptomycin (Invitrogen 15140), 1% GlutaMAX (Invitrogen 35050-061), 20 ng/mL EGF, […] hydrocortisone, 100 ng/mL cholera toxin, 10 μg/mL insulin.\nCells were plated in 96-well plates at 25×10^4 cells/ml. After 24 hours, compounds were added at 9, 3× dilutions in triplicate from 100 uM final concentration in the appropriate growth media. Plates were incubated for 72 hours at 37° C. in a 5% CO2/95% air humidified atmosphere after which time the media was removed and MTT was added in RPMI phenol red free media. The MTT was removed after 3 hours and formazan crystals were solubilized with 200 μL of isopropanol. Plates were read on a Molecular Devices SpectraMax i3 spectrophotometer at 570 nm for formazan and 690 nm for background subtraction. EC50 values were calculated by fitting the data in GraphPad Prism software."}, "[2]": {"experiment": "Plasma stability assay, mouse plasma", "assay_type": "in vitro ADME", "settings": "37° C.", "description": "The plasma stability assay was performed in triplicate by incubating a compound in normal mouse and human plasma at 37° C. At 0, 1, 3, 6, and 24 h, aliquots of the plasma mixture were taken and quenched with 3 volumes of acetonitrile containing an appropriate internal standard. The samples were then vortexed and centrifuged at 14,000 rpm for 5 min. The supernatants were collected and analyzed by LC-MS/MS to determine the remaining percentage at various time points.\nQuantification and analysis of compounds in biological samples were carried out on an AB Sciex QTrap 5500 mass spectrometer coupled with an Agilent 1260 Infinity HPLC. The chromatographic separation of compounds was achieved using a Phenomenex Kinetex C18 column (50×2.1 mm, 2.6 μm), and MS/MS analysis was conducted using an ESI ion source with MRM detection. The MS/MS detection parameters including declustering potential (DP), entrance potential (EP), collision energy (CE), and collision cell exit potential (CXP) were optimized for each compound."}, "Panc-1 cells": {"system": "Panc-1 cells", "experiment": "Cell viability assay (MTT) in Panc-1 cells", "assay_type": "cell-based", "settings": "Homo sapiens, antiproliferative activity, 72 h", "outline": "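After 24 h plating, Panc-1 cells were exposed for 72 h at 37 °C to compound in a nine-point 3-fold series from 100 uM final, in triplicate. Viability read by MTT reduction (570 nm, 690 nm background); EC50 fitted from the curves.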"}},
  "data": [
    {"compound": "CNC(=O)c1cccc(Cn2nc(C)c(NC(=O)c3ccc(COc4ccc(C(F)(F)F)cc4)cc3)c2C)c1", "note": "[Compound D9c, 3-((3,5-Dimethyl-4-(4-((4-(trifluoromethyl)phenoxy)-methyl)benzamido)-1H-pyrazol-1-yl)methyl)-N-methylbenzamide]", "values": [
      {"measurement": "EC50", "setting": "[1]", "value": 6.7, "unit": "µM"},
      {"measurement": "Plasma Stability (% remaining, 6 h/24 h) Mouse", "setting": "[2]; 6 h", "value": 91, "unit": "%"},
      {"measurement": "Plasma Stability (% remaining, 6 h/24 h) Mouse", "setting": "[2]; 24 h", "value": 77, "unit": "%"},
      {"measurement": "EC50", "setting": "Panc-1 cells", "value": 0.21, "unit": "µM"}
    ]}
  ]
}
